{"source": "ChEMBL document CHEMBL1150176", "about": "“Majorenolide and majorynolide: a new pair of cytotoxic and pesticidal alkene-alkyne delta-lactones from Persea major” (J Nat Prod, 1989)", "key": {"[1]": {"system": "Calliphoridae", "experiment": "Pesticidal activity against blowfly", "assay_type": "functional"}, "[2]": {"system": "Tetranychus urticae", "experiment": "Pesticidal activity against two spotted spider mite at 400 ppm", "assay_type": "functional"}, "[3]": {"system": "Artemia", "experiment": "Toxicity against brine shrimp", "assay_type": "organism-based", "details": "in vivo"}, "[4]": {"system": "Haemonchus contortus", "experiment": "Nematicidal activity against Haemonchus contortus", "assay_type": "functional"}, "[5]": {"system": "Aphis gossypii", "experiment": "Pesticidal activity against melon aphid at 10 ppm", "assay_type": "functional"}, "[6]": {"system": "HT-29", "experiment": "Cytotoxicity against human HT-29 cells", "assay_type": "functional", "details": "read-out: ED50 (the source's name)"}, "[7]": {"system": "Diabrotica undecimpunctata", "experiment": "Pesticidal activity against southern corn rootworm at 300 ppm", "assay_type": "functional, organism-based", "details": "howardi"}, "[8]": {"system": "Culicidae", "experiment": "Pesticidal activity against mosquito larvae at 10 ppm", "assay_type": "functional"}, "[9]": {"system": "A549", "experiment": "Cytotoxicity against human A549 cells", "assay_type": "functional", "details": "read-out: ED50 (the source's name)"}, "[10]": {"system": "MCF7", "experiment": "Cytotoxicity against human MCF7 cells", "assay_type": "functional", "details": "read-out: ED50 (the source's name)"}, "[11]": {"system": "Spodoptera eridania", "experiment": "Pesticidal activity against southern armyworm at 5000 ppm", "assay_type": "functional, organism-based"}, "[12]": {"system": "Agrobacterium tumefaciens", "experiment": "Antitumor activity against Agrobacterium tumefaciens-induced crown gall tumors in potato tuber by potato disk test", "assay_type": "functional"}, "[13]": {"system": "Aphis gossypii", "experiment": "Pesticidal activity against melon aphid at 400 ppm", "assay_type": "functional"}}, "note": "The source made the active and inactive calls. The calls are words filed in the database; no cut-off is given here.", "data": [{"smiles": "C=CCCCCCCCCC/C=C1\\CC(CO)OC1=O", "note": "(centres undefined) [MAJORENOLIDE]", "values": [{"measurement": "Activity", "setting": "[1]", "result": 1, "unit": "%"}, {"measurement": "Activity", "setting": "[2]", "result": 0, "unit": "%"}, {"measurement": "LC50", "setting": "[3]", "result": 0.36, "unit": "ppm"}, {"measurement": "Activity", "setting": "[4]", "result": 0.1, "unit": "%"}, {"measurement": "Activity", "setting": "[5]", "result": 80, "unit": "%"}, {"measurement": "EC50", "setting": "[6]", "result": 2.61, "unit": "mg/L"}, {"measurement": "Activity", "setting": "[7]", "result": "inactive"}, {"measurement": "Activity", "setting": "[8]", "result": 20, "unit": "%"}, {"measurement": "EC50", "setting": "[9]", "result": 1.7, "unit": "mg/L"}, {"measurement": "EC50", "setting": "[10]", "result": 2.58, "unit": "mg/L"}, {"measurement": "Activity", "setting": "[11]", "result": "inactive"}, {"measurement": "inhibition (INH)", "setting": "[12]", "result": 86, "unit": "%"}]}, {"smiles": "C#CCCCCCCCCC/C=C1\\CC(CO)OC1=O", "note": "(centres undefined) [MAJORYNOLIDE]", "values": [{"measurement": "Activity", "setting": "[1]", "result": 1, "unit": "%"}, {"measurement": "Activity", "setting": "[2]", "result": 0, "unit": "%"}, {"measurement": "LC50", "setting": "[3]", "result": 0.89, "unit": "ppm"}, {"measurement": "Activity", "setting": "[4]", "result": 0.1, "unit": "%"}, {"measurement": "EC50", "setting": "[6]", "result": 13.8, "unit": "mg/L"}, {"measurement": "Activity", "setting": "[7]", "result": "inactive"}, {"measurement": "Activity", "setting": "[8]", "result": 0, "unit": "%"}, {"measurement": "EC50", "setting": "[9]", "result": 4.64, "unit": "mg/L"}, {"measurement": "EC50", "setting": "[10]", "result": 9.56, "unit": "mg/L"}, {"measurement": "Activity", "setting": "[13]", "result": 0, "unit": "%"}, {"measurement": "Activity", "setting": "[11]", "result": "inactive"}, {"measurement": "inhibition (INH)", "setting": "[12]", "result": 46, "unit": "%"}]}]}
